How the values were obtained:
Estrogen receptor [1] = target: T1, Estrogen receptor (Homo sapiens, UniProt P03372); assay: Agonist activity at ERalpha-LBD in human U2OS cells transfected with Gal4-DBD assessed as increase of transactivation activity after 18 hrs by luciferase reporter gene assay; assay type: functional, cell-based; conditions: for pEC50: u2os
T1 sequence (P03372 whole entry): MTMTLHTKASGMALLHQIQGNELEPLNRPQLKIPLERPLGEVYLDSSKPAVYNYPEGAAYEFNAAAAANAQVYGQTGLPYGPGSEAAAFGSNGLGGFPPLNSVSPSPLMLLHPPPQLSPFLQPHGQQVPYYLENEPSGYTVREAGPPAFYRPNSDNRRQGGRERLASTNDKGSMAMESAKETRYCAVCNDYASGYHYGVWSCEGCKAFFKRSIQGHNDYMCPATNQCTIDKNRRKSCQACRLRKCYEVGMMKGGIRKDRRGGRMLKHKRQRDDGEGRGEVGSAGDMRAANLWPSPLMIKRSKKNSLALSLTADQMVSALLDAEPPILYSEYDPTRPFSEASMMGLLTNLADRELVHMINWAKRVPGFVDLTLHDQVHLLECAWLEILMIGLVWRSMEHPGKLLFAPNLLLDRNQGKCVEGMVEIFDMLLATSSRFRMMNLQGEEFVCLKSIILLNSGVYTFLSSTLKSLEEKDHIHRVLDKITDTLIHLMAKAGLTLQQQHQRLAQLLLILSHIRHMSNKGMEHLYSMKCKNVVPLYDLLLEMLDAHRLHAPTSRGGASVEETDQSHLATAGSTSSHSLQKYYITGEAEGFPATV

Estrogen receptor beta [2] = target: T2, Estrogen receptor beta (Homo sapiens, UniProt Q92731); assay: Agonist activity at ERbeta-LBD in human U2OS cells transfected with Gal4-DBD assessed as increase of transactivation activity after 18 hrs by luciferase reporter gene assay; assay type: functional, cell-based; conditions: for pEC50: u2os
T2 sequence (Q92731 whole entry, the tested form may be a part): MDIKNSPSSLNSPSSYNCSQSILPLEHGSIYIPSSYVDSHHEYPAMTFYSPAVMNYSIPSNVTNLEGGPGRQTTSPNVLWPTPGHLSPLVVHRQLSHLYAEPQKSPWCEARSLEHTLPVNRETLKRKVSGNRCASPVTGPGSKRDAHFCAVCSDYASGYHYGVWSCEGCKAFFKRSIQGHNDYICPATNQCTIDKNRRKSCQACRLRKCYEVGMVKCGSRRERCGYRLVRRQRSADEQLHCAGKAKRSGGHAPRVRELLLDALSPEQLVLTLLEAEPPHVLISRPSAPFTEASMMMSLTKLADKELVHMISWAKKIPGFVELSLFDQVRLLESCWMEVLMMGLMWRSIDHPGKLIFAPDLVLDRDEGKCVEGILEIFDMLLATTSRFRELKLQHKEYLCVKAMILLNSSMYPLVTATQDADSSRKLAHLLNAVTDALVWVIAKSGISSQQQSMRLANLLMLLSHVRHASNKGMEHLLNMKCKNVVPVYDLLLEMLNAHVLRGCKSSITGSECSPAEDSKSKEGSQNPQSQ

[3] = target: T3, Mineralocorticoid receptor (Homo sapiens, UniProt P08235); assay: Agonist activity at mineralocorticoid receptor-LBD in human U2OS cells transfected with Gal4-DBD assessed as increase of transactivation activity after 18 hrs by luciferase reporter gene assay; assay type: functional, cell-based
T3 sequence (P08235 whole entry): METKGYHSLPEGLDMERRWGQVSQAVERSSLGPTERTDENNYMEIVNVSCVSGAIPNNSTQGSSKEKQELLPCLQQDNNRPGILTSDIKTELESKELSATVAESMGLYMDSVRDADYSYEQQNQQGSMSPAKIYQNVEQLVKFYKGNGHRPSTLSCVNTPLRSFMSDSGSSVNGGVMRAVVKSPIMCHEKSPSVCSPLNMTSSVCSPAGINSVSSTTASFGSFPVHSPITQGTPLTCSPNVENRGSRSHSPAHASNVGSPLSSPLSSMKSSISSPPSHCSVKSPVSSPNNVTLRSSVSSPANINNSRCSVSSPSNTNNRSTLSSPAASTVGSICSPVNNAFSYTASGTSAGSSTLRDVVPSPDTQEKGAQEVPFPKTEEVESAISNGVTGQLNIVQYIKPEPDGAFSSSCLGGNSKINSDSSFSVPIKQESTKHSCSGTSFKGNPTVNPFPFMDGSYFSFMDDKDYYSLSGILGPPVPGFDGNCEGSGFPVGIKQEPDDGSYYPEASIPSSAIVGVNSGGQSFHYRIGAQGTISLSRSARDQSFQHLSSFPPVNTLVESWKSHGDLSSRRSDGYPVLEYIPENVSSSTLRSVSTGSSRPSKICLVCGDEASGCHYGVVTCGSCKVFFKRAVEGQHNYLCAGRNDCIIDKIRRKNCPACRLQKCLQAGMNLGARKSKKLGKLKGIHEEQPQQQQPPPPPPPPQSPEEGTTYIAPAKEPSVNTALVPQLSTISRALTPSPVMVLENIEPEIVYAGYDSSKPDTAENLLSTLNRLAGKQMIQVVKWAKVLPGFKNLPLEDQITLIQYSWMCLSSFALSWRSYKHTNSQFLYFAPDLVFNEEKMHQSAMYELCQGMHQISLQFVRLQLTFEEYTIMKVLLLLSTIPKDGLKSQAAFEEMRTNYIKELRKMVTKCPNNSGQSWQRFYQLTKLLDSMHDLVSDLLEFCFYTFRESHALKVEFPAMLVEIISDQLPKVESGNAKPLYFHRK

Estrogen receptor beta [4] = target: T2, Estrogen receptor beta; assay: Agonist activity at ERbeta-LBD in human U2OS cells transfected with Gal4-DBD assessed as increase of transactivation activity after 18 hrs by luciferase reporter gene assay relative to 17-beta-estradiol; assay type: functional, cell-based
Estrogen receptor [5] = target: T1, Estrogen receptor; assay: Antagonist activity at ERalpha-LBD in human U2OS cells transfected with Gal4-DBD assessed as inhibition of transactivation activity after 18 hrs by luciferase reporter gene assay; assay type: functional, cell-based
Estrogen receptor beta [6] = target: T2, Estrogen receptor beta; assay: Antagonist activity at ERbeta-LBD in human U2OS cells transfected with Gal4-DBD assessed as inhibition of transactivation activity after 18 hrs by luciferase reporter gene assay; assay type: functional, cell-based
[7] = target: T3, Mineralocorticoid receptor; assay: Antagonist activity at mineralocorticoid receptor-LBD in human U2OS cells transfected with Gal4-DBD assessed as inhibition of transactivation activity after 18 hrs by luciferase reporter gene assay; assay type: functional, cell-based; conditions: for pIC50: u2os
Glucocorticoid receptor [8] = target: T4, Glucocorticoid receptor (Homo sapiens, UniProt P04150)
T4 sequence (P04150 whole entry): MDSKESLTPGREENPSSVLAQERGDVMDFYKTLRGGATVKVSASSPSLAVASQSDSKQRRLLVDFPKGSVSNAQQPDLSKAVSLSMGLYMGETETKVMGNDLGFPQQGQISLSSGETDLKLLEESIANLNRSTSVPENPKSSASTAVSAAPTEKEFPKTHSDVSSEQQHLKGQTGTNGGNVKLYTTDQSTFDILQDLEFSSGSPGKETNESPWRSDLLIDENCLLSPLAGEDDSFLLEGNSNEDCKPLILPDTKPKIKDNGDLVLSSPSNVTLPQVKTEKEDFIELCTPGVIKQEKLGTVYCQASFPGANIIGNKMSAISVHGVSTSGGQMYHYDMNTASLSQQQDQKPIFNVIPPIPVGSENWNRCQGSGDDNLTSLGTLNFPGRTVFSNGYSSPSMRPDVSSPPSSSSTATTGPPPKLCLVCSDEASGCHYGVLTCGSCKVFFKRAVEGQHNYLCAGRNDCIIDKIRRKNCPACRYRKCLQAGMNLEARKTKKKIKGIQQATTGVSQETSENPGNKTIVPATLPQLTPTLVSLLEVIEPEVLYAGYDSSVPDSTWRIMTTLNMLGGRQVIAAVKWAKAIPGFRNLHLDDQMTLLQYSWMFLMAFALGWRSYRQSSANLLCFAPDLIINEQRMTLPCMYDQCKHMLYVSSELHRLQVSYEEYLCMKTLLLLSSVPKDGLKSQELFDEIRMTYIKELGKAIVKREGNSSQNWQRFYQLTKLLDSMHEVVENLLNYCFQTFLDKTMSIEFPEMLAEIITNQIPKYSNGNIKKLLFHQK
Description: Agonist activity at glucocorticoid receptor-LBD in human U2OS cells transfected with Gal4-DBD assessed as increase of transactivation activity after 18 hrs by luciferase reporter gene assay

Glucocorticoid receptor [9] = target: T4, Glucocorticoid receptor; remark: listed apart in the source
Description: Antagonist activity at glucocorticoid receptor-LBD in human U2OS cells transfected with Gal4-DBD assessed as inhibition of transactivation activity after 18 hrs by luciferase reporter gene assay

| Compound | EC50 (Estrogen receptor [1]) | EC50 (Estrogen receptor beta [2]) | EC50 [3] | Activity (Estrogen receptor beta [4]) | IC50 (Estrogen receptor [5]) | IC50 (Estrogen receptor beta [6]) | pIC50 [7] | EC50 (Glucocorticoid receptor [8]) | IC50 (Glucocorticoid receptor [9]) | pEC50 (Estrogen receptor beta [2]) | IC50 [7] | pEC50 (Estrogen receptor [1]) |
| --- | --- | --- | --- | --- | --- | --- | --- | --- | --- | --- | --- | --- |
| C[C@]12CC[C@@H]3c4ccc(O)cc4CC[C@H]3[C@@H]1CC[C@@]2(O)C/C=C/CC(F)(F)C(F)(F)C(F)(F)F | 0.485 µM | 2.4 µM | < 15.8 µM | 0.02% | < 15.8 µM | < 15.8 µM | > 4.901 | < 15.8 µM | < 5.5 µM | – | – | – |
| COc1ccc2c(c1)CC[C@@H]1[C@@H]2CC[C@@]2(C)[C@H]1CC[C@@]2(O)C/C=C/CC(F)(F)C(F)(F)C(F)(F)F | 1.66 µM | – | < 15.8 µM | – | < 15.8 µM | < 15.8 µM | > 4.8 | < 15.8 µM | < 15.8 µM | > 4.817 | – | – |
| COc1ccc2c(c1)CC[C@@H]1[C@@H]2CC[C@@]2(C)[C@H]1CC[C@@]2(O)/C=C/CC(F)(F)C(F)(F)C(F)(F)F | 4.03 µM | 5.19 µM | < 15.8 µM | 0.01% | < 15.8 µM | < 15.8 µM | > 4.841 | < 15.8 µM | < 9.25 µM | – | – | – |
| C[C@]12CC[C@@H]3c4ccc(O)cc4CC[C@H]3[C@@H]1CC[C@@]2(O)/C=C/CC(F)(C(F)(F)F)C(F)(F)F | 9.95 µM | – | < 15.8 µM | – | < 15.8 µM | < 15.7 µM | – | < 15.8 µM | 13.6 µM | > 4.713 | < 6.65 µM | – |
| C[C@]12CC[C@@H]3c4ccc(O)cc4CC[C@H]3[C@@H]1CC[C@@]2(O)/C=C/CC(F)(F)C(F)(F)C(F)(F)C(F)(F)C(F)(F)C(F)(F)F | 2.08 µM | < 2.75 µM | < 15.8 µM | – | < 15.8 µM | < 11.9 µM | – | < 15.8 µM | < 15.8 µM | – | < 5.36 µM | – |
| COc1ccc2c(c1)CC[C@@H]1[C@@H]2CC[C@@]2(C)[C@H]1CC[C@@]2(O)/C=C/CC(F)(F)C(F)(F)C(F)(F)C(F)(F)C(F)(F)C(F)(F)F | – | < 8.34 µM | < 15.8 µM | – | < 15.8 µM | < 15.8 µM | > 4.8 | < 15.8 µM | < 15.8 µM | – | – | > 4.8 |
| C[C@]12CC[C@@H]3c4ccc(O)cc4CC[C@H]3[C@@H]1CC[C@@]2(O)C/C=C/CC(F)(F)C(F)(F)C(F)(F)C(F)(F)C(F)(F)C(F)(F)F | 1.03 µM | 0.052 µM | < 15.8 µM | 0.88% | < 15.8 µM | < 15.8 µM | – | < 15.8 µM | < 15.8 µM | – | < 4.82 µM | – |

The next lines start with the values.

| EC50 (Estrogen receptor [1]) | EC50 (Estrogen receptor beta [2]) | EC50 [3] | Activity (Estrogen receptor beta [4]) | IC50 (Estrogen receptor [5]) | IC50 (Estrogen receptor beta [6]) | pIC50 [7] | EC50 (Glucocorticoid receptor [8]) | IC50 (Glucocorticoid receptor [9]) | pEC50 (Estrogen receptor beta [2]) | IC50 [7] | pEC50 (Estrogen receptor [1]) | Compound |
| --- | --- | --- | --- | --- | --- | --- | --- | --- | --- | --- | --- | --- |
| 0.403 µM | – | < 15.8 µM | – | < 15.8 µM | < 4.05 µM | – | < 15.8 µM | < 13.5 µM | > 4.8 | 5.14 µM | – | C[C@]12CC[C@@H]3c4ccc(O)cc4CC[C@H]3[C@@H]1CC[C@@]2(O)C/C=C/CC(F)(C(F)(F)F)C(F)(F)F |
| 0.0355 µM | 0.129 µM | < 15.8 µM | 0.35% | < 15.8 µM | < 12.4 µM | – | < 15.8 µM | 3.13 µM | – | 3.81 µM | – | C[C@]12CC[C@@H]3c4ccc(O)cc4CC[C@H]3[C@@H]1CC[C@@]2(O)/C=C/CC(F)(F)C(F)(F)C(F)(F)F |
| – | – | < 15.8 µM | – | < 15.8 µM | < 15.8 µM | > 4.8 | 0.00673 µM | < 15.8 µM | > 4.902 | – | > 4.8 | COc1ccc2c(c1)CC[C@@H]1[C@@H]2CC[C@@]2(C)[C@H]1CC[C@@]2(O)C/C=C/CC(F)(F)C(F)(F)C(F)(F)C(F)(F)C(F)(F)C(F)(F)F |
